Reference: ChEMBL document CHEMBL5625183, “Discovery of a novel dual-target inhibitor of CDK12 and PARP1 that induces synthetic lethality for treatment of triple-negative breast cancer” (Eur J Med Chem, 2023)
Active and inactive are the calls of the source. The rule behind the calls is not given here.

Experiments:
[1] = Cmax in Sprague-Dawley rat at 1 mg/kg, iv measured upto 24 hrs by LC-MS/MS analysis; type: ADME, organism-based; conditions: in vivo
[2] = test system: MDA-MB-231; test: […] DNA repair in human MDA-MB-231 cells assessed as […] formation at 10 uM incubated for 24 hrs by confocal laser scanning microscopic analysis; type: functional, cell-based
[3] = Toxicity in BALB/c mouse xenografted with human MDA-MB-231 cells assessed as morphological changes in spleen at 20 to 80 mg/kg, ip administered once daily for 16 days by H and E staining based analysis; type: organism-based; conditions: in vivo, 384 h, dose 20-80 mg/kg, time 16 day
[4] = MRT (0 to infinity) in Sprague-Dawley rat at 1 mg/kg, iv measured upto 24 hrs by LC-MS/MS analysis; type: ADME, organism-based; conditions: in vivo
[5] = test system: MDA-MB-468; test: Inhibition of cell migration in human MDA-MB-468 cells assessed as downregulation of MMP-2 level by measuring fluorescence intensity at 10 uM incubated for 24 hrs by confocal microscopic analysis; type: functional, cell-based
[6] = test system: MDA-MB-231; test: Antiproliferative activity against human MDA-MB-231 cells assessed as reduction in EDU-positive cells at 10 uM […]-staining based analysis; type: functional, cell-based
[7] = test system: MDA-MB-436; test: Antiproliferative activity against human MDA-MB-436 cells transfected with wild type PARP1 and CDK12 M816A mutant incubated for 24 hrs by MTT assay; type: functional, cell-based
[8] = target: Dual specificity protein kinase CLK1 (Homo sapiens) (UniProt P49759); test: Inhibition of CLK1 (unknown origin) at 1 uM relative to control
Dual specificity protein kinase CLK1 (Homo sapiens), sequence (P49759 whole entry, looked up): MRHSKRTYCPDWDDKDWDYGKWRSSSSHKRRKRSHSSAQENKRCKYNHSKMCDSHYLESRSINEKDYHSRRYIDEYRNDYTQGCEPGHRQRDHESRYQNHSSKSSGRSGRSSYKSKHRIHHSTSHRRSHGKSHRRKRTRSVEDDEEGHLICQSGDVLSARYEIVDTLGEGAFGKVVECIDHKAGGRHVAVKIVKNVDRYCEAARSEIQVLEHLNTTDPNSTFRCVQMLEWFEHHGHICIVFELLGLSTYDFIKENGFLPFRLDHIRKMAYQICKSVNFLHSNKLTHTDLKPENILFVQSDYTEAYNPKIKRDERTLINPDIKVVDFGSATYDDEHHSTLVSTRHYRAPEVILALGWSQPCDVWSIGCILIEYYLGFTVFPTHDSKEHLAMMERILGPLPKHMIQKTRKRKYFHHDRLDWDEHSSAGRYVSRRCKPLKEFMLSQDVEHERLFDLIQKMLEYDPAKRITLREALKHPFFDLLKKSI

[9] = test system: MDA-MB-436; test: Induction of cell cycle arrest in human MDA-MB-436 cells assessed as accumulation of cells at S phase at 10 uM measured after 24 hrs by PI staining based cytometry analysis (reference value: 25.43%); type: functional
[10] = test system: MDA-MB-468; test: Induction of apoptosis in human MDA-MB-468 cells assessed as increase in […] at 10 uM incubated for 24 hrs by Annexin V/PI staining based flow cytometry analysis; type: functional, cell-based
[11] = target: Cyclin-dependent kinase 2 (Homo sapiens, UniProt P24941); test: Inhibition of CDK2 (unknown origin)
[12] = test system: MDA-MB-468; test: Inhibition of cell migration in human MDA-MB-468 cells assessed as upregulation of E-cadherin level by measuring fluorescence intensity at 10 uM incubated for 24 hrs by confocal microscopic analysis; type: functional, cell-based
[13] = target: T1, Cyclin-dependent kinase 12 (Homo sapiens, UniProt Q9NYV4); test: Binding affinity to CDK12 in human MDA-MB-231 cells assessed as increase in protein thermal stabilization at 10 uM incubated for 6 hrs by CETSA based Western blot analysis; type: cell-based
Target sequence in this assay (Q9NYV4 whole entry, looked up): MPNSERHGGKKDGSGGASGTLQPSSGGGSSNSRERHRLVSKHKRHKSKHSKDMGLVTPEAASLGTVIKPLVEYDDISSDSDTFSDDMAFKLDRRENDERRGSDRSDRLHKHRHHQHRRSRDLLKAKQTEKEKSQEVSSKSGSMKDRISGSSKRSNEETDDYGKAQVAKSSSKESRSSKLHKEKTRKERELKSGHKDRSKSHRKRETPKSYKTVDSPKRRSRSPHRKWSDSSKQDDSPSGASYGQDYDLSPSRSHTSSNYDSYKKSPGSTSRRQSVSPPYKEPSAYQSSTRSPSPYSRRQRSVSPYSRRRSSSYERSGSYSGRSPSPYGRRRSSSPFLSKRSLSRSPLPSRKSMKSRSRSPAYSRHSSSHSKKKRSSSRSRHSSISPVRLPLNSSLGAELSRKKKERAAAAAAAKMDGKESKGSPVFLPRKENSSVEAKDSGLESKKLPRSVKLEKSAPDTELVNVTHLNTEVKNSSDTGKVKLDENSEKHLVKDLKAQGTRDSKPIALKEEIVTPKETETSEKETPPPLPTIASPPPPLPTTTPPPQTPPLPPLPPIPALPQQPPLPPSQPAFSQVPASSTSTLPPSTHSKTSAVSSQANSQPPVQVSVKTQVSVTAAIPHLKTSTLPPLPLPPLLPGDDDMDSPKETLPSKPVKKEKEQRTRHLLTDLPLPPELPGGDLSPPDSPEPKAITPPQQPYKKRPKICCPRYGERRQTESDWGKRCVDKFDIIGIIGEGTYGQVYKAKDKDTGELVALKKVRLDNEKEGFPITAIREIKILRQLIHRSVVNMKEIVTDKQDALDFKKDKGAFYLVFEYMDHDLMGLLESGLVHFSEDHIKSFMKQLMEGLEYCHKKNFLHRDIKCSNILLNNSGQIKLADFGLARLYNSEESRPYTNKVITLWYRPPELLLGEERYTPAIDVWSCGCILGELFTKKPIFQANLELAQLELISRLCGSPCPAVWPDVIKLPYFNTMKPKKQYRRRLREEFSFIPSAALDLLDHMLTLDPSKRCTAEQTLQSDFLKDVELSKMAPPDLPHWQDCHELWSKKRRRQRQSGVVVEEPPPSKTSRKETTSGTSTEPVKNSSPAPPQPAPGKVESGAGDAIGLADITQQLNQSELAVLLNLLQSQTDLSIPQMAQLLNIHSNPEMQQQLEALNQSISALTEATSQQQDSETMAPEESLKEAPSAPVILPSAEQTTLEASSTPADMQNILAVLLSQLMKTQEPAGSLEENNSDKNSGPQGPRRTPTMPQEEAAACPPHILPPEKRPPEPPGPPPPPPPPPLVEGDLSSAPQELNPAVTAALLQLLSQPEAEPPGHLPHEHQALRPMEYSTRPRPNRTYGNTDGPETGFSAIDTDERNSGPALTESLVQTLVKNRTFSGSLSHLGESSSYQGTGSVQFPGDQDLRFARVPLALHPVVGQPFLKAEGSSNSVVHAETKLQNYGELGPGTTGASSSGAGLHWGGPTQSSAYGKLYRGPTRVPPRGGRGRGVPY

[14] = test system: MDA-MB-231; test: Induction of apoptosis in human MDA-MB-231 cells assessed as downregulation of Bcl-2 expression incubated for 24 hrs; type: functional, cell-based; conditions: dose 5-20 µM
[15] = test system: MDA-MB-231; test: Induction of […] in human MDA-MB-231 cells assessed as increase in gamma-H2AX foci formation at 10 uM incubated for 24 hrs by confocal laser scanning microscopic analysis; type: functional, cell-based
[16] = Toxicity in BALB/c mouse xenografted with human MDA-MB-231 cells assessed as morphological changes in kidney at 20 to 80 mg/kg, ip administered once daily for 16 days by H and E staining based analysis; type: organism-based; conditions: in vivo, 384 h, dose 20-80 mg/kg, time 16 day
[17] = test system: MDA-MB-231; test: Inhibition of cell migration in human MDA-MB-231 cells assessed as wound closure at 10 uM incubated for 24 hrs by wound healing assay; type: functional, cell-based
[18] = test system: MCF-10A; test: Cytotoxicity against human MCF-10A cells assessed reduction in cell viability incubated for 24 hrs by MTT assay; type: toxicity, cell-based
[19] = test system: MDA-MB-231; test: Induction of apoptosis in human MDA-MB-231 cells assessed as increase in […] at 10 uM incubated for 24 hrs by Annexin V/PI staining based flow cytometry analysis; type: functional, cell-based
[20] = Apparent volume of distribution in Sprague-Dawley rat at 1 mg/kg, iv measured upto 24 hrs by LC-MS/MS analysis; type: ADME, organism-based; conditions: in vivo, read-out: Vz
[21] = target: T1, Cyclin-dependent kinase 12; test: Inhibition of CDK12 (unknown origin) in presence of ATP by kinase-glo plus luminescent assay
Target sequence in this assay (Q9NYV4 whole entry): as the sequence (Q9NYV4 whole entry, looked up) above

[22] = test system: MDA-MB-231; test: Induction of apoptosis in human MDA-MB-231 cells assessed as upregulation of Bax expression incubated for 24 hrs; type: functional, cell-based; conditions: dose 5-20 µM
[23] = target: Poly [ADP-ribose] polymerase 1 (Homo sapiens, UniProt P09874); test: Binding affinity to PARP1 in human MDA-MB-231 cells assessed as increase in protein thermal stabilization at 10 uM incubated for 6 hrs by CETSA based Western blot analysis; type: cell-based
Poly [ADP-ribose] polymerase 1, sequence (P09874 whole entry): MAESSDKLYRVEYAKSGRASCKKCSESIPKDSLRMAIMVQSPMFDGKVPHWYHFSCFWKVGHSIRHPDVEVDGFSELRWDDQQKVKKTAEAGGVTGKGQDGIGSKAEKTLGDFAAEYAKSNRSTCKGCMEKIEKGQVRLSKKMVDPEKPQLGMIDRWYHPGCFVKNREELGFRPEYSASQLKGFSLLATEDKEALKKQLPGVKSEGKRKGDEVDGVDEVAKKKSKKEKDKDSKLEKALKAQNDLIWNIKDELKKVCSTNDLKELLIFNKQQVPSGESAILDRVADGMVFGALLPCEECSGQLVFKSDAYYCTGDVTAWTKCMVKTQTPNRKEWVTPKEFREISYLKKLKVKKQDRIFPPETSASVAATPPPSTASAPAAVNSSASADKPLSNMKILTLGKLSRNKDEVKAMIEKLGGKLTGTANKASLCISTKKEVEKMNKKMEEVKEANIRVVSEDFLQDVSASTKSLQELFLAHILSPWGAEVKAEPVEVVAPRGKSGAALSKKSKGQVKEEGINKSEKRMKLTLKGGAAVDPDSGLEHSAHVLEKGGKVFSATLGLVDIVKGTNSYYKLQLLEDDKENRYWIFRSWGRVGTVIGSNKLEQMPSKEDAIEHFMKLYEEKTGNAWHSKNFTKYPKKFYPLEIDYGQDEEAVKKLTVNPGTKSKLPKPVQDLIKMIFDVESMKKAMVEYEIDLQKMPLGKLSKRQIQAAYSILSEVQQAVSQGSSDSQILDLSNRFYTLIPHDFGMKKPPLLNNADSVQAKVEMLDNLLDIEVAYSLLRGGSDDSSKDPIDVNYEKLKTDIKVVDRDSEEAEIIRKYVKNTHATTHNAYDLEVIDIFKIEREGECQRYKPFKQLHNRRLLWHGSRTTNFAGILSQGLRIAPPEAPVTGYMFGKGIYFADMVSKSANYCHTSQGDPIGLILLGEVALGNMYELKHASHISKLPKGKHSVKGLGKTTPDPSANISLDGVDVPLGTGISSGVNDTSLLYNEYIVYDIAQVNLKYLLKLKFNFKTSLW

[24] = test system: MDA-MB-231; test: Induction of cell cycle arrest in human MDA-MB-231 cells assessed as accumulation of cells at G1 phase at 20 uM measured after 24 hrs by PI staining based cytometry analysis (reference value: 68.55%); type: functional
[25] = target: T1, Cyclin-dependent kinase 12; test: Inhibition of CDK12 in human MDA-MB-231 cells assessed as effect on Pol II CTD at ser7 residue phosphorylation incubated for 24 hrs; type: cell-based; conditions: dose 5-20 µM
Target sequence in this assay (Q9NYV4 whole entry, looked up): as the sequence (Q9NYV4 whole entry, looked up) above

[26] = test system: MDA-MB-468; test: Inhibition of cell migration in human MDA-MB-468 cells assessed as wound closure at 10 uM incubated for 24 hrs by wound healing assay; type: functional, cell-based
[27] = target: Poly [ADP-ribose] polymerase 2 (Homo sapiens, UniProt Q9UGN5); test: Inhibition of PARP2 (unknown origin) incubated for 1 hr by ELISA analysis
Poly [ADP-ribose] polymerase 2, sequence (Q9UGN5 whole entry): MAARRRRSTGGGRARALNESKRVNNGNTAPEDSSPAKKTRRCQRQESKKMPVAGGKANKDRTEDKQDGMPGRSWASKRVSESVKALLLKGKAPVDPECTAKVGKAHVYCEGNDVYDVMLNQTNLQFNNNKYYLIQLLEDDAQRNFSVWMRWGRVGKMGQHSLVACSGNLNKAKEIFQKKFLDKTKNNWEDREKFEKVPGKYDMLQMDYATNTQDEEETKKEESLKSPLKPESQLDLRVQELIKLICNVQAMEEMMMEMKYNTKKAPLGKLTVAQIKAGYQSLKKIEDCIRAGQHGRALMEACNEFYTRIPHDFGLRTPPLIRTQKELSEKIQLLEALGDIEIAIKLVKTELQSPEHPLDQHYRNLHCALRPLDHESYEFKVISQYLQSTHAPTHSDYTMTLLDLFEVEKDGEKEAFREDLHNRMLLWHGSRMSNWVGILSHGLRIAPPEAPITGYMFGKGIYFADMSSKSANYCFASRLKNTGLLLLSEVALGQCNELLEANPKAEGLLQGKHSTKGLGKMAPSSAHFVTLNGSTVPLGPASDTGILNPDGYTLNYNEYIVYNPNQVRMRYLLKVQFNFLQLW

[28] = test system: MDA-MB-468; test: Induction of apoptosis in human MDA-MB-468 cells assessed as upregulation of cleaved-caspase 3 expression incubated for 24 hrs; type: functional, cell-based; conditions: dose 5-20 µM
[29] = Metabolic stability in human liver microsome assessed as intrinsic clearance in presence of NADPH incubated upto 60 mins by LC-MS/MS analysis; type: ADME; conditions: liver microsomes, read-out: CLH
[30] = test system: MDA-MB-436; test: Antiproliferative activity against human MDA-MB-436 cells assessed as inhibition of cell growth incubated for 24 hrs by MTT assay; type: functional, cell-based; conditions: Homo sapiens, MDA-MB-436, 24 h
[31] = test system: MDA-MB-231; test: Antiproliferative activity against human MDA-MB-231 cells transfected with CDK12 M816A and PARP1 G863A mutant incubated for 24 hrs by MTT assay; type: functional, cell-based
[32] = target: T1, Cyclin-dependent kinase 12; test: Inhibition of CDK12 (unknown origin) at 1 uM in presence of ATP by kinase-glo plus luminescent assay relative to control
Target sequence in this assay (Q9NYV4 whole entry, looked up): as the sequence (Q9NYV4 whole entry, looked up) above

[33] = test system: MDA-MB-468; test: Antiproliferative activity against human MDA-MB-468 cells assessed as decrease in number of colony formation at 10 uM measured after 24 days by crystal violet staining based analysis; type: functional, cell-based; conditions: time 24.0 day
[34] = Volume of distribution at steady state in Sprague-Dawley rat at 1 mg/kg, iv measured upto 24 hrs by LC-MS/MS analysis; type: ADME, organism-based; conditions: in vivo, read-out: Vdss
[35] = test system: MDA-MB-231; test: Downregulation of Pol II CTD at ser2 residue expression in human MDA-MB-231 cells incubated for 24 hrs; type: functional, cell-based; conditions: dose 5-20 µM
[36] = test system: MDA-MB-436; test: Induction of cell cycle arrest in human MDA-MB-436 cells assessed as accumulation of cells at G2 phase at 20 uM measured after 24 hrs by PI staining based cytometry analysis (reference value: 2.54%); type: functional

Cmax [1]: 2130 ng/mL
MRT inf [4]: 1.87 h
inhibition [8]: > 60%
IC50 [11]: 689 nM
Activity [13]: Active
Vd [20]: 3.22 L/kg
IC50 [21]: 285 nM
Activity [23]: Active
inhibition [25]: Dose-Dependent Effect
IC50 [27]: 30 nM
CLint scaled [29]: 7.61 mL/min/kg
IC50 [30]: 9000 nM
inhibition [32]: 77.3%
Vd [34]: 1.39 L/kg
SMILES: NC(=O)c1cccc2[nH]c(NC(=O)c3cccc(C(=O)N4CCC(Nc5ncc(I)cn5)CC4)c3)nc12
Activity [2]: Active
Activity [3]: Non-Toxic
inhibition [5]: Active
Activity [6]: Active
Activity [7]: Active
Activity [9]: 25.71%
Activity [10]: Active
inhibition [12]: Active
Activity [14]: Dose-Dependent Effect
Activity [15]: Active
Activity [16]: Non-Toxic
inhibition [17]: Active
Activity [18]: Non-Toxic
Activity [19]: Active
Activity [22]: Dose-Dependent Effect
Activity [24]: 59.26%
inhibition [26]: Active
Activity [28]: Dose-Dependent Effect
Activity [31]: Active
Activity [33]: Active
Activity [35]: Dose-Dependent Effect
Activity [36]: 15.05%
